pIC50: −log10 of the molar value. Read-outs that look alike come from different tables or passages of the source.
Experiments:
MV4;11 cells = experiment: Cell viability assay (CellTiter-Glo) in MV4;11 cells, alone or with gilteritinib; type: cell-based; details: Homo sapiens, MV4-11, 72 h, MV4;11 cells, three days, CellTiter-Glo, read-out: MV4
MOLM-13 cells = experiment: Cell viability assay (CellTiter-Glo) in MOLM-13 cells, alone or with gilteritinib; type: cell-based; details: Homo sapiens, MOLM-13, 72 h, MOLM-13 cells, three days, CellTiter-Glo
[1] = compound alone (without gilteritinib), 11 IC50
[2] = compound with gilteritinib 10 nM, 11 IC50 gilteritinib
[3] = compound alone (without gilteritinib), read-out: MOLM-13 IC50
[4] = compound with gilteritinib 20 nM, read-out: MOLM-13 IC50 gilteritinib
[5] = with gilteritinib 10 nM, 11 IC50 gilteritinib
[6] = with gilteritinib 20 nM, read-out: MOLM-13 IC50 gilteritinib

| SMILES | pIC50 (MV4;11 cells; [1]) | pIC50 (MV4;11 cells; [2]) | pIC50 (MOLM-13 cells; [3]) | pIC50 (MOLM-13 cells; [4]) | pIC50 (MV4;11 cells; [5]) | pIC50 (MOLM-13 cells; [6]) |
| --- | --- | --- | --- | --- | --- | --- |
| Cc1cncc(-c2cnn(CCCCCCNc3ccc4c(c3)C(=O)N(C3CCC(=O)NC3=O)C4=O)c2)c1 (stereo not drawn) [GS-499, 2-(2,6-dioxopiperidin-3-yl)-5-((6-(4-(5-methylpyridin-3-yl)-1H-pyrazol-1-yl)hexyl)amino)isoindoline-1,3-dione] | < 6.00 | 6.00 to 7.00 | < 6.00 | 6.00 to 7.00 | – | – |
| O=C1CCC(N2C(=O)c3ccc(NCCCN4CCCC(n5cc(-c6cnc7ccccc7n6)cn5)C4)cc3C2=O)C(=O)N1 (stereo not drawn) [GS-347, 2-(2,6-Dioxopiperidin-3-yl)-5-((3-(3-(4-(quinoxalin-2-yl)-1H-pyrazol-1-yl)piperidin-1-yl)propyl)amino)isoindoline-1,3-dione] | < 6.00 | – | < 6.00 | – | < 6.00 | 7.00 to 8.00 |
| O=C1CCC(N2Cc3ccc(NCCCCCCn4cc(-c5cnc6ccccc6n5)cn4)cc3C2=O)C(=O)N1 (stereo not drawn) [GS-128, 3-(1-Oxo-6-((6-(4-(quinoxalin-2-yl)-1H-pyrazol-1-yl)hexyl)amino)isoindolin-2-) piperidine-2,6-dione] | < 6.00 | – | < 6.00 | – | < 6.00 | < 6.00 |
| CN1CCN(c2ccnc(-c3cn([C@H]4C[C@H](CNc5ccc6c(c5)C(=O)N(C5CCC(=O)NC5=O)C6=O)C4)nc3C3CC3)c2)CC1 (stereo partly drawn) [GS-608, 5-(((trans-3-(3-Cyclopropyl-4-(4-(4-methylpiperazin-1-yl)pyridin-2-yl)-1H-pyrazol-1-yl)cyclobutyl)methyl)amino)-2-(2,6-dioxopiperidin-3-yl)isoindoline-1,3-dione] | < 6.00 | < 6.00 | < 6.00 | < 6.00 | – | – |
| O=C1CCC(N2C(=O)c3ccc(NC[C@H]4C[C@H](n5cc(-c6cc7[nH]ncc7cn6)c(C6CC6)n5)C4)cc3C2=O)C(=O)N1 (stereo partly drawn) [GS-288, 5-(((trans-3-(3-Cyclopropyl-4-(1H-pyrazolo[4,3-c]pyridin-6-yl)-1H-pyrazol-1-yl)cyclobutyl)methyl)amino)-2-(2,6-dioxopiperidin-3-yl)isoindoline-1,3-dione] | 6.00 to 7.00 | – | 6.00 to 7.00 | – | 7.00 to 8.00 | 7.00 to 8.00 |
| O=C1CCC(N2C(=O)c3ccc(NCC4CC(n5cc(-c6cnc7cccc(F)c7n6)cn5)C4)cc3C2=O)C(=O)N1 (stereo not drawn) [GS-394, 2-(2,6-Dioxopiperidin-3-yl)-5-(((3-(4-(8-fluoroquinoxalin-2-yl)-1H-pyrazol-1-yl)cyclobutyl)methyl)amino)isoindoline-1,3-dione] | 6.00 to 7.00 | – | < 6.00 | – | 7.00 to 8.00 | 7.00 to 8.00 |
| O=C1CCC(N2C(=O)c3ccc(NCCC[C@H]4C[C@H](n5cc(-c6cnc7ccc(OC8CCNCC8)cc7n6)cn5)C4)cc3C2=O)C(=O)N1 (stereo partly drawn) [GS-204, 2-(2,6-Dioxopiperidin-3-yl)-5-((3-(trans-3-(4-(7-(piperidin-4-yloxy)quinoxalin-2-yl)-1H-pyrazol-1-yl)cyclobutyl)propyl)amino)isoindoline-1,3-dione] | 7.00 to 8.00 | – | 6.00 to 7.00 | – | 7.00 to 8.00 | > 8.00 |
| CN1CCN(c2ccc3ncc(-c4cnn([C@H]5C[C@H](CNc6ccc7c(c6)C(=O)N(C6CCC(=O)NC6=O)C7=O)C5)c4)nc3c2)CC1 (stereo partly drawn) [GS-185, 2-(2,6-Dioxopiperidin-3-yl)-5-(((trans-3-(4-(7-(4-methylpiperazin-1-yl)quinoxalin-2-yl)-1H-pyrazol-1-yl)cyclobutyl)methyl)amino)isoindoline-1,3-dione] | 6.00 to 7.00 | – | 6.00 to 7.00 | – | 7.00 to 8.00 | 7.00 to 8.00 |
| O=C1CCC(N2Cc3ccc(CCCCCCC(=O)N4CCC(n5cc(-c6cnc7ccccc7n6)cn5)CC4)cc3C2=O)C(=O)N1 (stereo not drawn) [GS-097, 3-(1-Oxo-6-(7-oxo-7-(4-(4-(quinoxalin-2-yl)-1H-pyrazol-1-yl)piperidin-1-yl)heptyl)isoindolin-2-yl)piperidine-2,6-dione] | 7.00 to 8.00 | – | 7.00 to 8.00 | – | > 8.00 | > 8.00 |
| Cc1nc(-c2cn([C@H]3C[C@H](CNc4ccc5c(c4)C(=O)N(C4CCC(=O)NC4=O)C5=O)C3)nc2C2CC2)ccc1Cl (stereo partly drawn) [GS-609, 5-(((trans-3-(4-(5-Chloro-6-methylpyridin-2-yl)-3-cyclopropyl-1H-pyrazol-1-yl)cyclobutyl)methyl)amino)-2-(2,6-dioxopiperidin-3-yl)isoindoline-1,3-dione] | 7.00 to 8.00 | > 8.00 | 7.00 to 8.00 | > 8.00 | – | – |
| O=C1CCC(N2C(=O)c3ccc(NCCC[C@H]4C[C@H](n5cc(-c6cnc7ccc(C8CCOCC8)cc7n6)cn5)C4)cc3C2=O)C(=O)N1 (stereo partly drawn) [GS-181, 2-(2,6-Dioxopiperidin-3-yl)-5-((3-(trans-3-(4-(7-(tetrahydro-2H-pyran-4-yl)quinoxalin-2-yl)-1H-pyrazol-1-yl)cyclobutyl)propyl)amino)isoindoline-1,3-dione] | 7.00 to 8.00 | – | 7.00 to 8.00 | – | > 8.00 | > 8.00 |
| O=C1CCC(N2C(=O)c3ccc(NC[C@H]4C[C@H](n5cc(-c6cccc(NC7COC7)n6)c(C6CC6)n5)C4)cc3C2=O)C(=O)N1 (stereo partly drawn) [GS-260, 5-(((trans-3-(3-Cyclopropyl-4-(6-(oxetan-3-ylamino)pyridin-2-yl)-1H-pyrazol-1-yl)cyclobutyl)methyl)amino)-2-(2,6-dioxopiperidin-3-yl)isoindoline-1,3-dione] | < 6.00 | – | 6.00 to 7.00 | – | < 6.00 | < 6.00 |

The remaining lines, values ahead:

| pIC50 (MV4;11 cells; [1]) | pIC50 (MV4;11 cells; [2]) | pIC50 (MOLM-13 cells; [3]) | pIC50 (MOLM-13 cells; [4]) | pIC50 (MV4;11 cells; [5]) | pIC50 (MOLM-13 cells; [6]) | SMILES |
| --- | --- | --- | --- | --- | --- | --- |
| < 6.00 | < 6.00 | 7.00 to 8.00 | 6.00 to 7.00 | – | – | O=C1CCC(N2C(=O)c3ccc(NC[C@H]4C[C@H](n5ccc(C6CC6)n5)C4)cc3C2=O)C(=O)N1 (stereo partly drawn) [GS-588, 5-(((trans-3-(3-Cyclopropyl-1H-pyrazol-1-yl)cyclobutyl)methyl)amino)-2-(2,6-dioxopiperidin-3-yl)isoindoline-1,3-dione] |
| < 6.00 | – | < 6.00 | – | < 6.00 | < 6.00 | O=C1CCC(N2C(=O)c3ccc(NC[C@H]4C[C@H](n5cc(-c6cnc7ccc(N8CCNCC8)cc7n6)cn5)C4)cc3C2=O)C(=O)N1 (stereo partly drawn) [GS-187, 2-(2,6-Dioxopiperidin-3-yl)-5-(((trans-3-(4-(7-(piperazin-1-yl)quinoxalin-2-yl)-1H-pyrazol-1-yl)cyclobutyl)methyl)amino)isoindoline-1,3-dione] |
| > 8.00 | > 8.00 | > 8.00 | > 8.00 | – | – | O=C1CCC(N2Cc3cc(NC(=O)Cc4cccc(N5CCC(n6cc(-c7cnc8ccccc8n7)cn6)CC5)c4)ccc3C2=O)C(=O)N1 (stereo not drawn) [GS-495, N-(2-(2,6-dioxopiperidin-3-yl)-1-oxoisoindolin-5-yl)-2-(3-(4-(4-(quinoxalin-2-yl)-1H-pyrazol-1-yl)piperidin-1-yl)phenyl)acetamide] |
| < 6.00 | < 6.00 | < 6.00 | < 6.00 | – | – | O=C1CCC(N2C(=O)c3ccc(NC[C@H]4C[C@H](n5cc(-c6cc(N7CCNCC7)ccn6)c(C6CC6)n5)C4)cc3C2=O)C(=O)N1 (stereo partly drawn) [GS-607, 5-(((trans-3-(3-Cyclopropyl-4-(4-(piperazin-1-yl)pyridin-2-yl)-1H-pyrazol-1-yl)cyclobutyl)methyl)amino)-2-(2,6-dioxopiperidin-3-yl)isoindoline-1,3-dione] |
| < 6.00 | < 6.00 | < 6.00 | < 6.00 | – | – | O=C1CCC(N2C(=O)c3ccc(NC[C@H]4C[C@H](n5cc(-c6cccc(C7CNC7)n6)c(C6CC6)n5)C4)cc3C2=O)C(=O)N1 (stereo partly drawn) [GS-605, 5-(((trans-3-(4-(6-(Azetidin-3-yl)pyridin-2-yl)-3-cyclopropyl-1H-pyrazol-1-yl)cyclobutyl)methyl)amino)-2-(2,6-dioxopiperidin-3-yl)isoindoline-1,3-dione] |
| 7.00 to 8.00 | > 8.00 | 6.00 to 7.00 | > 8.00 | – | – | Cc1cccc(-c2cnn(CCCCCCNc3ccc4c(c3)C(=O)N(C3CCC(=O)NC3=O)C4=O)c2)c1 (stereo not drawn) [GS-497, 2-(2,6-dioxopiperidin-3-yl)-5-((6-(4-(m-tolyl)-1H-pyrazol-1-yl)hexyl)amino)isoindoline-1,3-dione] |
| > 8.00 | – | > 8.00 | – | > 8.00 | > 8.00 | O=C1CCC(N2C(=O)c3ccc(NC[C@H]4C[C@H](n5cc(-c6ncccc6C(F)(F)F)c(C6CC6)n5)C4)cc3C2=O)C(=O)N1 (stereo partly drawn) [GS-277, 5-(((trans-3-(3-Cyclopropyl-4-(3-(trifluoromethyl)pyridin-2-yl)-1H-pyrazol-1-yl)cyclobutyl)methyl)amino)-2-(2,6-dioxopiperidin-3-yl)isoindoline-1,3-dione] |
| < 6.00 | – | < 6.00 | – | < 6.00 | < 6.00 | CN1CC(Nc2cccc(-c3cn([C@H]4C[C@H](CNc5ccc6c(c5)C(=O)N(C5CCC(=O)NC5=O)C6=O)C4)nc3C3CC3)n2)C1 (stereo partly drawn) [GS-292, 5-(((trans-3-(3-Cyclopropyl-4-(6-((1-methylazetidin-3-yl)amino)pyridin-2-yl)-1H-pyrazol-1-yl)cyclobutyl)methyl)amino)-2-(2,6-dioxopiperidin-3-yl)isoindoline-1,3-dione] |
| 6.00 to 7.00 | 7.00 to 8.00 | 6.00 to 7.00 | > 8.00 | – | – | O=C1CCC(N2C(=O)c3ccc(NCCCCCCn4cc(-c5cnc6cccc(C(F)(F)F)c6n5)cn4)cc3C2=O)C(=O)N1 (stereo not drawn) [GS-555, 2-(2,6-Dioxopiperidin-3-yl)-5-((6-(4-(8-(trifluoromethyl)quinoxalin-2-yl)-1H-pyrazol-1-yl)hexyl)amino)isoindoline-1,3-dione] |
